pIC50: −log10 of the molar value.
Tests used:
Type in all cases: biochemical
[1] = target: T1, PDK1 enzyme (Homo sapiens, UniProt O15530); experiment: PDK1 kinase inhibition assay (33P phosphorylation of synthetic peptide, filter plate); conditions: 0.01 mM ATP, 60 min at 30° C.; read-out: PDK1 IC50
T1 sequence (O15530 1-556): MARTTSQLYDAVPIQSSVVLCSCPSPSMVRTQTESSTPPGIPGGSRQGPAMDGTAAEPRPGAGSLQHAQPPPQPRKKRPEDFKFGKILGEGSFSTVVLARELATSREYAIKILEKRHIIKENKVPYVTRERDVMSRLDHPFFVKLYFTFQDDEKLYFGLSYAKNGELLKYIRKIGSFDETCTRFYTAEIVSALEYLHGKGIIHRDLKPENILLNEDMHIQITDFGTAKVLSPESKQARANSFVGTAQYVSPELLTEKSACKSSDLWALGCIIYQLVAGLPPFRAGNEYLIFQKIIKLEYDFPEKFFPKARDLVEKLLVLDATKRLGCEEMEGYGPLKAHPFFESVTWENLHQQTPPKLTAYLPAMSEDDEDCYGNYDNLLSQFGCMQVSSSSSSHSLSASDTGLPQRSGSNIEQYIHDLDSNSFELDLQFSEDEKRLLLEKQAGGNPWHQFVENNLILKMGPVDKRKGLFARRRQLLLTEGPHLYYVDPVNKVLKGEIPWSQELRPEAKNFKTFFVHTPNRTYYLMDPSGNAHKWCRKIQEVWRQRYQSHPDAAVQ
Experimental: (§1) The assay mixture containing the inhibitor and PDK1 enzyme was mixed together in a microtiter plate in a final volume of 50 μl and incubated for 60 min at 30° C. The assay mixture contained 0.01 mM unlabeled ATP, 0.01 μCi/μl ^33P-γ-ATP, 0.075 mM peptide, 0.1 mg/ml BSA, 7.5 mM magnesium acetate, 0.05M Tris.HCl, pH 7.5, 0.5% 2-mercaptoethanol. The reaction was stopped by adding 50 μl of 50 mM phosphoric acid. 90 μl of the mixture were transferred to a pre-wetted 96-well Multiscreen MAPHNOB filtration plate (Millipore) and filtered on a vacuum manifold. […] The filtration plate was dried for 10 min at 65° C., scintillant added and phosphorylated peptide quantified in a scintillation counter (Trilux, PerkinElmer)

[2] = target: CDK-2 enzyme, complexed with cyclin A (Homo sapiens, UniProt P24941); experiment: CDK2 enzyme inhibition assay (33P phosphorylation of peptide […], filter plate); conditions: CDK-2/cyclin A, 0.1 mM ATP, 40 min at 30° C.
Experimental: as §1, with “and CDK-2 enzyme, complexed with cyclin A (0.4 U/ml)” for “and PDK1 enzyme”, “for 40” for “for 60”, “contained 0.1” for “contained 0.01”, “^33P-γ-ATP, 0.03” for “^33P-γ-ATP, 0.075”, “acetate, 50 mM HEPES-NaOH,” for “acetate, 0.05M Tris.HCl,”, “pH 7.5.” for “pH 7.5, 0.5% 2-mercaptoethanol.”
HEPES is N-[2-Hydroxyethyl]piperazine-N′-[2-ethanesulfonic acid] BSA is bovine serum albumin.

[3] = target: T2, GST-Chk1 enzyme (Homo sapiens, UniProt O14757); experiment: Chk1 kinase inhibition assay (33P phosphorylation of Chktide, filter plate); conditions: 0.01 mM ATP, 11 nM GST-Chk1, 40 minutes at 30° C.; read-out: Chk1 IC50
T2 sequence (O14757 1-476): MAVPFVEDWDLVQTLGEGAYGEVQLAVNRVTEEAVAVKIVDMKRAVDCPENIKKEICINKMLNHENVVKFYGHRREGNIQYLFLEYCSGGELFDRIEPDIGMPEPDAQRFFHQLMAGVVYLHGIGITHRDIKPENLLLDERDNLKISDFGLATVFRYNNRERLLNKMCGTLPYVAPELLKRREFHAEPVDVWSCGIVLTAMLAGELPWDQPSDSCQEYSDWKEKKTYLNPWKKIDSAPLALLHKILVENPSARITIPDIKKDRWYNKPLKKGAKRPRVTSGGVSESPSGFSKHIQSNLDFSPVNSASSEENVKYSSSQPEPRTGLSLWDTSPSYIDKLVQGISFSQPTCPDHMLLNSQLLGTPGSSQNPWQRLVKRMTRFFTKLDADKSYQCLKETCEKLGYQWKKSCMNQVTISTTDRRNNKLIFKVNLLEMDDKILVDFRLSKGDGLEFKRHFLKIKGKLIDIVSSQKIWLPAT
Experimental: The assay mixture containing the inhibitor and Chk1 enzyme was mixed together in a microtiter plate in a final volume of 50 μl and incubated for 40 minutes at 30° C.
The reaction was stopped by adding 50 μl of 50 mM phosphoric acid. 90 μl of the mixture was transferred to a pre-wetted 96-well Multiscreen MAPHNOB filtration plate (Millipore) and filtered on a vacuum manifold. […] The filtration plate was dried for 10 min at 65° C., scintillant added and phosphorylated peptide quantified in a scintillation counter (Trilux, PerkinElmer)

pIC50 [1]	pIC50 [2]	pIC50 [3]	Compound
< 3.70	5.85	6.20	CN(C)S(=O)(=O)c1ccc(Nc2cc(N[C@H]3CC[C@H](N)CC3)nc3c(-c4ccsc4)cnn23)cc1 [Example 154]
4.24	6.85	5.00	CCc1cnn2c(Nc3ccc(C(N)=O)cc3)cc(Cl)nc12 [Example 149]
< 3.70	6.08	4.79	CC(C)c1cnn2c(Nc3ccc(S(=O)(=O)N(C)C)cc3)cc(N(C)C3CCN(C)CC3)nc12 [Example 87]
< 3.70	5.88	< 3.70	O=S(=O)(Nc1nccs1)c1ccc(Nc2cc(Cl)nc3ccnn23)cc1 [Example 11]
< 3.70	6.62	< 3.70	CCc1cnn2c(Nc3ccc(S(=O)(=O)N(C)C)cc3)cc(Cl)nc12 [Example 52]
< 3.70	5.37	< 3.70	CC(C)c1cnn2c(Nc3ccc(S(=O)(=O)N(C)C)cc3)cc(N3CCCC(C(=O)O)C3)nc12 (stereo not drawn) [Example 82]
< 3.70	5.32	< 3.70	CC(C)c1cnn2c(Nc3ccc(S(=O)(=O)N(C)C)cc3)cc(N3CCC(C(=O)O)CC3)nc12 [Example 78]
< 3.70	5.71	4.29	CC(C)c1cnn2c(Nc3ccc(S(C)(=O)=O)cc3)cc(N(C)CCN(C)C)nc12 [Example 58]
< 3.70	5.08	< 3.70	CC(C)c1cnn2c(Nc3ccc(S(=O)(=O)N(C)C)cc3)cc(N3CCCC(CN(C)C)C3)nc12 (stereo not drawn) [Example 89]
5.54	7.33	5.83	N[C@H]1CC[C@H](Nc2cc(Nc3ccc(Sc4cccs4)cc3)n3ncc(Cl)c3n2)CC1 [Example 193]
< 3.70	5.88	< 3.70	CS(=O)(=O)c1ccc(Nc2cc(OC3CCCCC3)nc3ccnn23)cc1 [Example 21]
5.42	7.62	< 3.70	CC(C)c1cnn2c(Nc3ccc(S(=O)(=O)N(C)C)cc3)cc(N[C@H]3CC[C@H](O)CC3)nc12 [Example 101]
< 3.70	5.03	< 3.70	CC(C)c1cnn2c(Nc3ccc(S(=O)(=O)N(C)C)cc3)cc(C(=O)NCCN3CCOCC3)nc12 [Example 121]
4.82	5.66	5.40	CCc1cnn2c(Nc3ccc(S(C)(=O)=O)cc3)cc(N[C@H]3CC[C@@H](N)CC3)nc12 [Example 173]
< 3.70	6.57	< 3.70	CC(C)c1cnn2c(Nc3ccc(S(=O)(=O)N(C)CCO)cc3)cc(N3CCCC(CO)C3)nc12 (stereo not drawn) [Example 55]
< 3.70	6.14	< 3.70	CCc1cnn2c(Nc3ccc(S(C)(=O)=O)cc3)ccnc12 [Example 47]
< 3.70	6.23	< 3.70	CC(C)c1cnn2c(Nc3ccc(S(=O)(=O)N(C)C)cc3)cc(C(=O)N3CCC(O)CC3)nc12 [Example 120]
< 3.70	5.25	< 3.70	Oc1cccc(-c2cc(Nc3ccccc3)n3nccc3n2)c1 [Example 6]
5.81	8.40	5.70	CN(C)S(=O)(=O)c1ccc(Nc2cc(N[C@H]3CC[C@H](N)CC3)nc3c(Cl)cnn23)cc1 [Example 148]

pIC50 [1]	pIC50 [2]	pIC50 [3]	Compound
< 3.70	6.14	< 3.70	NS(=O)(=O)c1ccc(Nc2cc(Cl)nc3ccnn23)cc1 [Example 12]
4.14	7.43	5.10	CC(C)c1cnn2c(Nc3ccc(S(=O)(=O)N(C)C)cc3)cc(CN3CCC(N)CC3)nc12 [Example 157]
< 3.70	5.96	< 3.70	CC(C)c1cnn2c(Nc3ccc(S(=O)(=O)N(C)C)cc3)cc(OCC3CCCN3C)nc12 (stereo not drawn) [Example 65]
< 3.70	6.85	< 3.70	CC[C@H](CO)Nc1cc(Nc2ccc(S(=O)(=O)N(C)C)cc2)n2ncc(C(C)C)c2n1 [Example 83]
< 3.70	5.75	< 3.70	NS(=O)(=O)c1ccc(Nc2ccnc3ccnn23)cc1 [Example 20]
< 3.70	7.15	4.57	CN(C)S(=O)(=O)c1cccc(Nc2cc(N[C@H]3CC[C@H](N)CC3)nc3c(Br)cnn23)c1 [Example 94]
< 3.70	6.40	< 3.70	CC(C)Oc1cc(Nc2ccc(S(=O)(=O)N(C)C)cc2)n2ncc(C(C)C)c2n1 [Example 64]
4.15	6.52	< 3.70	NS(=O)(=O)c1ccc(Nc2cc(OC3CCCCC3)nc3ccnn23)cc1 [Example 22]
< 3.70	5.88	< 3.70	CC(C)c1cnn2c(Nc3ccc(S(=O)(=O)N(C)C)cc3)cc(OC3CCCC3)nc12 [Example 54]
< 3.70	4.63	< 3.70	CC(C)c1cnn2c(Nc3ccc(S(=O)(=O)N(C)C)cc3)cc(C(=O)O)nc12 [Example 117]
< 3.70	6.15	< 3.70	COCCNS(=O)(=O)c1ccc(Nc2cc(Cl)nc3c(C(C)C)cnn23)cc1 [Example 36]
< 3.70	6.43	5.27	CC(C)COc1cc(Nc2ccc(S(=O)(=O)NCCN(C)C)cc2)n2ncc(C(C)C)c2n1 [Example 90]
< 3.70	5.14	< 3.70	Cc1cccc(-c2cc(NCc3ccncc3)n3nccc3n2)c1 [Example 7]
< 3.70	5.40	< 3.70	Oc1ccc(-c2cc(Nc3cccc(Cl)c3)n3nccc3n2)cc1 [Example 5]
< 3.70	6.91	< 3.70	COCCN(C)S(=O)(=O)c1ccc(Nc2cc(Cl)nc3c(C(C)C)cnn23)cc1 [Example 96]
< 3.70	5.10	< 3.70	CCNC(=O)c1cc(Nc2ccc(S(=O)(=O)N(C)C)cc2)n2ncc(C(C)C)c2n1 [Example 115]
5.28	5.44	6.30	CN(C)S(=O)(=O)c1ccc(Nc2cc(N[C@H]3CC[C@@H](N)CC3)nc3c(Br)cnn23)cc1 [Example 140]
5.30	6.09	4.92	CC(C)c1cnn2c(Nc3ccc(S(=O)(=O)N(C)C)cc3)cc(N[C@H]3CC[C@H](N(C)C)CC3)nc12 [Example 162]
< 3.70	5.14	4.73	CC(C)c1cnn2c(Nc3ccc(S(=O)(=O)N(C)C)cc3)cc(N(C)CCCN(C)C)nc12 [Example 74]

— patent US20070179161A1, “Pyrazolopyrimidine compounds and their use in medicine” (VERNALIS (CAMBRIDGE) LIMITED., priority 2003, published 2007)
